Laboratory results: article doi:10.1101/2024.08.13.607785v1 (biorxiv, 2024)
Where two headings read alike, the source gives them in different places.

Tests used:
Assay in all cases: biochemical
Design in all cases: species or system human cell line lysate
[1] = biological target: Isoform 6 of Calcium/calmodulin-dependent protein kinase type II subun ; CAMK2G ; Q13555-6 (Homo sapiens, UniProt Q13555)
[2] = biological target: Serine/threonine-protein kinase 17B ; STK17B ; O94768 (Homo sapiens, UniProt O94768)
[3] = biological target: Ketosamine-3-kinase ; FN3KRP ; Q9HA64 (Homo sapiens, UniProt Q9HA64)
[4] = biological target: Tyrosine-protein kinase Fyn ; FYN ; P06241 (Homo sapiens, UniProt P06241)
[5] = biological target: Dual specificity protein kinase CLK3 ; CLK3 ; P49761 (Homo sapiens, UniProt P49761)
[6] = biological target: Mitogen-activated protein kinase kinase kinase 12 ; MAP3K12 ; Q12852 (Homo sapiens, UniProt Q12852)
[7] = biological target: Serine/threonine-protein kinase BRSK2 ; BRSK2 ; Q8IWQ3 (Homo sapiens, UniProt Q8IWQ3)
[8] = biological target: Phosphatidylinositol 4,5-bisphosphate 3-kinase catalytic subunit delta ; PIK3CD ; O00329 (Homo sapiens, UniProt O00329)
[9] = biological target: Tyrosine-protein kinase Fes/Fps ; FES ; P07332 (Homo sapiens, UniProt P07332)
[10] = biological target: Protein kinase C delta type ; PRKCD ; Q05655 (Homo sapiens, UniProt Q05655)
[11] = biological target: Serine/threonine-protein kinase MRCK alpha ; CDC42BPA ; Q5VT25 (Homo sapiens, UniProt Q5VT25)
[12] = biological target: 3-phosphoinositide-dependent protein kinase 1 ; PDPK1 ; O15530 (Homo sapiens, UniProt O15530)
[13] = biological target: Deoxycytidine kinase ; DCK ; P27707 (Homo sapiens, UniProt P27707)
[14] = biological target: Serine/threonine-protein kinase Chk1 ; CHEK1 ; O14757 (Homo sapiens, UniProt O14757)
[15] = biological target: Phosphoinositide 3-kinase regulatory subunit 4 ; PIK3R4 ; Q99570 (Homo sapiens, UniProt Q99570)
[16] = biological target: Isoform CSBP1 of Mitogen-activated protein kinase 14 ; MAPK14 ; Q16539-2 (Homo sapiens, UniProt Q16539)
[17] = biological target: Beta-adrenergic receptor kinase 1 ; GRK2 ; P25098 (Homo sapiens, UniProt P25098)
[18] = biological target: 1-phosphatidylinositol 3-phosphate 5-kinase ; PIKFYVE ; Q9Y2I7 (Homo sapiens, UniProt Q9Y2I7)
[19] = biological target: Serine/threonine-protein kinase RIO2 ; RIOK2 ; Q9BVS4 (Homo sapiens, UniProt Q9BVS4)
[20] = biological target: Misshapen-like kinase 1 ; MINK1 ; Q8N4C8 (Homo sapiens, UniProt Q8N4C8)
[21] = biological target: Mitogen-activated protein kinase 15 ; MAPK15 ; Q8TD08 (Homo sapiens, UniProt Q8TD08)
[22] = biological target: Adenylate kinase isoenzyme 6 ; AK6 ; Q9Y3D8 (Homo sapiens, UniProt Q9Y3D8)
[23] = biological target: Serine/threonine-protein kinase TAO2 ; TAOK2 ; Q9UL54 (Homo sapiens, UniProt Q9UL54)
[24] = read-out: BAY-1143572 (10 µM) / %Intensity relative to DMSO
[25] = read-out: BAY-1251152 (10 µM) / %Intensity relative to DMSO

Sequence of Isoform 6 of Calcium/calmodulin-dependent protein kinase type II subun ; CAMK2G ; Q13555-6 (Q13555 whole entry, canonical isoform, one chain of several): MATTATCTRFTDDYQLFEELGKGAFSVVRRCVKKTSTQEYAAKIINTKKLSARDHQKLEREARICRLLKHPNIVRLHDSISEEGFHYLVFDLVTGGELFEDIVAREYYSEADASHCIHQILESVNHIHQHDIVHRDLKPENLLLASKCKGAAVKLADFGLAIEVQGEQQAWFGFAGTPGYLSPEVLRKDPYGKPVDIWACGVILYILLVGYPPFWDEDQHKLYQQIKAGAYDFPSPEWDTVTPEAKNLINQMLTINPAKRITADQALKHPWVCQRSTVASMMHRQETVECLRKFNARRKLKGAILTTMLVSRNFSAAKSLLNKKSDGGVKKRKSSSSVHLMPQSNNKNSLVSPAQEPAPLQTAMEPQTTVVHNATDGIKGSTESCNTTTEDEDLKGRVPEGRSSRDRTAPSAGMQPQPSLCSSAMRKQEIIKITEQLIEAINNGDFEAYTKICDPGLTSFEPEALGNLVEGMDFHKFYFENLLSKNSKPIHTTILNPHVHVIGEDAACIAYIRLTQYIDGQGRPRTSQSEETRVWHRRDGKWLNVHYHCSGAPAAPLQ
Sequence of Serine/threonine-protein kinase BRSK2 ; BRSK2 ; Q8IWQ3 (Q8IWQ3 whole entry, one chain of several): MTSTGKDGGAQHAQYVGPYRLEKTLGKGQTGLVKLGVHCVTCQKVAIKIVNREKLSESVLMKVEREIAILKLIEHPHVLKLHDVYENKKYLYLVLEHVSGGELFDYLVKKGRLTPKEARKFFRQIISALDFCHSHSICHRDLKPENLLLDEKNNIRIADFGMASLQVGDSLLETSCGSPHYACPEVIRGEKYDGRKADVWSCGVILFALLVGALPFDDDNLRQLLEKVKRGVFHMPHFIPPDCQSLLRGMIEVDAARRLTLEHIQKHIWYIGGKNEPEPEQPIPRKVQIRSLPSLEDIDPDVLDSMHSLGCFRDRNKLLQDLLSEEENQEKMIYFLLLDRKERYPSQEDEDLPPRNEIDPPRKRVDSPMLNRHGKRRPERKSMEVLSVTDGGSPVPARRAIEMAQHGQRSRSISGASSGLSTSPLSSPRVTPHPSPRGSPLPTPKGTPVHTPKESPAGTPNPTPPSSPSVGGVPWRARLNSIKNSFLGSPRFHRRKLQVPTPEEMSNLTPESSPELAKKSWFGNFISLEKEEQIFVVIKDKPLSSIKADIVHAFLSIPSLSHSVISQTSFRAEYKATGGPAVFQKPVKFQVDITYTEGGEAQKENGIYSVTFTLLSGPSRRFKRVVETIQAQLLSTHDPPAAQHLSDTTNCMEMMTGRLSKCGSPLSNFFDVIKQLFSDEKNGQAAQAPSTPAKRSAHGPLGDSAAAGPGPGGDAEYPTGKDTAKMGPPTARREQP
Sequence of Adenylate kinase isoenzyme 6 ; AK6 ; Q9Y3D8 (Q9Y3D8 whole entry): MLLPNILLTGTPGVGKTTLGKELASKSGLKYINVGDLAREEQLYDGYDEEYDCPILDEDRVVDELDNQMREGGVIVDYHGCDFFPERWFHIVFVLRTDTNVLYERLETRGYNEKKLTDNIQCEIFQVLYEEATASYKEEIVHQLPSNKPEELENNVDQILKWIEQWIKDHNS
Sequence of 3-phosphoinositide-dependent protein kinase 1 ; PDPK1 ; O15530 (O15530 whole entry): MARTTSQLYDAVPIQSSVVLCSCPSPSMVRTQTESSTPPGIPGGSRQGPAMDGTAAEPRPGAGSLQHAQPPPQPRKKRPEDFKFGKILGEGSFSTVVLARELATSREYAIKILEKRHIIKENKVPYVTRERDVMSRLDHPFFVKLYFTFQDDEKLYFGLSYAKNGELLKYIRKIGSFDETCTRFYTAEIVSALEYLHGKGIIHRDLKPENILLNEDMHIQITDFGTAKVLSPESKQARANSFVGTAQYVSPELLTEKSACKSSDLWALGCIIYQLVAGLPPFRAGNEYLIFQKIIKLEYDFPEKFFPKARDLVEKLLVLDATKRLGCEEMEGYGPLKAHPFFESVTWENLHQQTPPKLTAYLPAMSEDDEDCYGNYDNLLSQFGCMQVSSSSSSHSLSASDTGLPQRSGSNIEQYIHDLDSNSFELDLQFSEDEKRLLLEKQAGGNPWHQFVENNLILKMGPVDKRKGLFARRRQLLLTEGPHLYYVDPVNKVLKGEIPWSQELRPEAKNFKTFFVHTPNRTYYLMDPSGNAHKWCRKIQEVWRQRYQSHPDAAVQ
Sequence of Serine/threonine-protein kinase Chk1 ; CHEK1 ; O14757 (O14757 whole entry, one chain of several): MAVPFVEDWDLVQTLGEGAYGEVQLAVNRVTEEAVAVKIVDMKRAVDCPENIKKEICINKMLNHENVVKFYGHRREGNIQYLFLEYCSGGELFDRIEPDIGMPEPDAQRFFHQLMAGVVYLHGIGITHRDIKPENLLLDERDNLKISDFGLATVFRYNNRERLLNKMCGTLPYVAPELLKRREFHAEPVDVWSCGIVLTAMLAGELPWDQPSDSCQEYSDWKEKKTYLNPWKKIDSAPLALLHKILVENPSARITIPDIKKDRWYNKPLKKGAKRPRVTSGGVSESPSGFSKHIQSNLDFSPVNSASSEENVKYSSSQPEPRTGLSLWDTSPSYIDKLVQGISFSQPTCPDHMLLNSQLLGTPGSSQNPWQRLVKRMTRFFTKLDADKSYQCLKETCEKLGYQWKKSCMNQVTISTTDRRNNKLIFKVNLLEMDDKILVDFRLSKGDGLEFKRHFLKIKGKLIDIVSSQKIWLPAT
Sequence of 1-phosphatidylinositol 3-phosphate 5-kinase ; PIKFYVE ; Q9Y2I7 (Q9Y2I7 whole entry): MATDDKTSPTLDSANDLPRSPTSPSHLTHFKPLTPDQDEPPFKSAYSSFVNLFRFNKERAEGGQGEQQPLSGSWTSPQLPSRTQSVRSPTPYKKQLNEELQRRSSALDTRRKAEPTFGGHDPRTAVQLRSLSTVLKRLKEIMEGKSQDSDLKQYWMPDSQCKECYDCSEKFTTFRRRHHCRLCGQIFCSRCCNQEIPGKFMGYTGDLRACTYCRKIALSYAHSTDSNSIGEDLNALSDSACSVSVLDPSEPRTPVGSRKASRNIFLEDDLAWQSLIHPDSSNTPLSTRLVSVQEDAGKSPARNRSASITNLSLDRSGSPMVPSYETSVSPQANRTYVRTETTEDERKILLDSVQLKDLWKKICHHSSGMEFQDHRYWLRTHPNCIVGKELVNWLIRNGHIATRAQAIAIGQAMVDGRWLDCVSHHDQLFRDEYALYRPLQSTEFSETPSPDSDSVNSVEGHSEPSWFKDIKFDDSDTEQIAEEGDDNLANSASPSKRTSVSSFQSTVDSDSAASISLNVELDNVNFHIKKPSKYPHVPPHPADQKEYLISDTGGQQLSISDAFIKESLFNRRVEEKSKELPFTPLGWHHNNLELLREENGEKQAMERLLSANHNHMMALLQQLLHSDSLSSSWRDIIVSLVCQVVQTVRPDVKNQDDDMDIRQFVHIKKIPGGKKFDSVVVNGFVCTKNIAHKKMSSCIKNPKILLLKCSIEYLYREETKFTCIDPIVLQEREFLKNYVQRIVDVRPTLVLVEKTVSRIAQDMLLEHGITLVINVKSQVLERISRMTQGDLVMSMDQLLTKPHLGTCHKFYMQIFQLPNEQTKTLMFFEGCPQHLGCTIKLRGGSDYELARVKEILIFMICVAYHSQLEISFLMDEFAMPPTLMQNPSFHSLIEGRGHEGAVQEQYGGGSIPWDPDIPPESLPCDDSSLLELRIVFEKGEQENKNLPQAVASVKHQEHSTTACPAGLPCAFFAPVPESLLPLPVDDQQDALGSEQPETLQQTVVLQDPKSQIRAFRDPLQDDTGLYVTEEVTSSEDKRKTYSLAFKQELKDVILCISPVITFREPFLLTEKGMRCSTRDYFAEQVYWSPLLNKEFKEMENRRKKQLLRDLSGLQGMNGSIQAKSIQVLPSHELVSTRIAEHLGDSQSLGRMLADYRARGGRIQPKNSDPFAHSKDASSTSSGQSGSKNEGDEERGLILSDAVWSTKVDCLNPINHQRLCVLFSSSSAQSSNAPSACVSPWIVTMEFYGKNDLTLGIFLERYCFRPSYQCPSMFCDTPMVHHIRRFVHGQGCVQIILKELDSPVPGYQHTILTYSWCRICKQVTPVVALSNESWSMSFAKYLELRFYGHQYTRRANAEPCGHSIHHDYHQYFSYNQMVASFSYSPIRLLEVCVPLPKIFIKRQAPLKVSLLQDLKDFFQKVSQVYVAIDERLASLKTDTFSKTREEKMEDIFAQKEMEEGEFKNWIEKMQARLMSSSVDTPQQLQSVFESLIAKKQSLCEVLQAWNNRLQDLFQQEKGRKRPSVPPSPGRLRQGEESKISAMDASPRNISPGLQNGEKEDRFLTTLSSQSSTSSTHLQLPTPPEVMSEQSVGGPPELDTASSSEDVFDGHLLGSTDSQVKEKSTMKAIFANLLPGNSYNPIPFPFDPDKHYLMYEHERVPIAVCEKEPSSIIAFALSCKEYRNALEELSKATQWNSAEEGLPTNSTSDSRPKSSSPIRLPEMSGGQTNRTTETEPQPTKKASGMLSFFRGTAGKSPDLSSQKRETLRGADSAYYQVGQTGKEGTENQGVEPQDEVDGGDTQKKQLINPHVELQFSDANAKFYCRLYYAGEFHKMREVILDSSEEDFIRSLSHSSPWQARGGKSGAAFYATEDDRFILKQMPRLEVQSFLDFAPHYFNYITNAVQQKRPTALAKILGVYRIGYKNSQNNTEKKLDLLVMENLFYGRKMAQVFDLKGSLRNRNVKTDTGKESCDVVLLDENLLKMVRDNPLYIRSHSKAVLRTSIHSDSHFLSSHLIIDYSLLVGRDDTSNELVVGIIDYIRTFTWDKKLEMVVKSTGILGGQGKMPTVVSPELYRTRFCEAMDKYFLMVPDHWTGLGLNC
Sequence of Serine/threonine-protein kinase 17B ; STK17B ; O94768 (O94768 whole entry, one chain of several): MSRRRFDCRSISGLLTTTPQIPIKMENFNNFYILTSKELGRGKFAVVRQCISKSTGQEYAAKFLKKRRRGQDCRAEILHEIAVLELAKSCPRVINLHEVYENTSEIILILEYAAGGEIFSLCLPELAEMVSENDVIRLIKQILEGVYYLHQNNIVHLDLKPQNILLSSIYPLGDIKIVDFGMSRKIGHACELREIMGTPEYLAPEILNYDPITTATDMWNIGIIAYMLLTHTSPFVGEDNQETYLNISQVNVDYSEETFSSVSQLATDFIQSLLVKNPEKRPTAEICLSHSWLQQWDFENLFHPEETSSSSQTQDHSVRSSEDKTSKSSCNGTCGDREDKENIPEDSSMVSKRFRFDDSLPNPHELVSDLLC

SMILES: COc1cc(F)ccc1-c1ncnc(Nc2cccc(C[S@](C)(=N)=O)c2)n1 [BAY-1143572]
- remaining activity at 10 µM [1, 24]: 105%
- remaining activity at 10 µM [2, 24]: 90.7%
- remaining activity at 10 µM [3, 24]: 117%
- remaining activity at 10 µM [4, 24]: 92.2%
- remaining activity at 10 µM [5, 24]: 113%
- remaining activity at 10 µM [6, 24]: 114%
- remaining activity at 10 µM [7, 24]: 104%
- remaining activity at 10 µM [8, 24]: 116%
- remaining activity at 10 µM [9, 24]: 102%
- remaining activity at 10 µM [10, 24]: 97.1%
- remaining activity at 10 µM [11, 24]: 97.1%
- remaining activity at 10 µM [12, 24]: 114%
- remaining activity at 10 µM [13, 24]: 121%
- remaining activity at 10 µM [14, 24]: 106%
- remaining activity at 10 µM [15, 24]: 101%
- remaining activity at 10 µM [16, 24]: 133%
- remaining activity at 10 µM [17, 24]: 142%
- remaining activity at 10 µM [18, 24]: 94.3%
- remaining activity at 10 µM [19, 24]: 123%
- remaining activity at 10 µM [20, 24]: 72.9%
- remaining activity at 10 µM [21, 24]: 98.2%
- remaining activity at 10 µM [22, 24]: 34.2%
- remaining activity at 10 µM [23, 24]: 80.7%

SMILES: COc1cc(F)ccc1-c1cc(Nc2cc(CS(C)(=N)=O)ccn2)ncc1F (stereo not shown) [BAY-1251152]
- remaining activity at 10 µM [1, 25]: 94.9%
- remaining activity at 10 µM [2, 25]: 108%
- remaining activity at 10 µM [3, 25]: 114%
- remaining activity at 10 µM [4, 25]: 103%
- remaining activity at 10 µM [5, 25]: 115%
- remaining activity at 10 µM [6, 25]: 109%
- remaining activity at 10 µM [7, 25]: 114%
- remaining activity at 10 µM [8, 25]: 113%
- remaining activity at 10 µM [9, 25]: 96.1%
- remaining activity at 10 µM [10, 25]: 97.3%
- remaining activity at 10 µM [11, 25]: 107%
- remaining activity at 10 µM [12, 25]: 104%
- remaining activity at 10 µM [13, 25]: 108%
- remaining activity at 10 µM [14, 25]: 110%
- remaining activity at 10 µM [15, 25]: 107%
- remaining activity at 10 µM [16, 25]: 120%
- remaining activity at 10 µM [17, 25]: 131%
- remaining activity at 10 µM [18, 25]: 102%
- remaining activity at 10 µM [19, 25]: 111%
- remaining activity at 10 µM [20, 25]: 54.1%
- remaining activity at 10 µM [21, 25]: 101%
- remaining activity at 10 µM [22, 25]: 47.6%
- remaining activity at 10 µM [23, 25]: 56%
